Data reported in publication PMC3623729 (Journal of medicinal chemistry, 2013).
Entries after “also recorded” stand apart in the source; their conditions may differ.

Biological target: T1, human RXRα (Homo sapiens, UniProt P19793)
T1 sequence (P19793 1-462): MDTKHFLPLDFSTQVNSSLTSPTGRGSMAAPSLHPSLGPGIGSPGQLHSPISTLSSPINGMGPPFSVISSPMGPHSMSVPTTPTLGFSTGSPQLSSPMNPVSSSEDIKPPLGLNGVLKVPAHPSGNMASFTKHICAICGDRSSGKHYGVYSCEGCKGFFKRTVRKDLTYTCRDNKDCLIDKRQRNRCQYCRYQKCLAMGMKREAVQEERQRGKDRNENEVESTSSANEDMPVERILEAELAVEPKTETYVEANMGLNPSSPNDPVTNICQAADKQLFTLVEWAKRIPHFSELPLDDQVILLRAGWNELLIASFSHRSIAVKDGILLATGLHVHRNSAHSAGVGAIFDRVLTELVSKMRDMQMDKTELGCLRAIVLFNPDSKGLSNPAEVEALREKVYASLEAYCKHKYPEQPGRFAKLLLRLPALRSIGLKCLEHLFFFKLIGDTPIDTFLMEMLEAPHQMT
Experiment: RXRE-luciferase reporter gene assay
Type: cell-based
Settings: for Max IR: maximum induction ratio observed: compounds tested at variable concentrations

In the case of O=C(O)CCn1c2c(c3ccc(Br)cc3c1=O)C(=O)c1ccccc1-2 [Compound 97, Lithium 6(2-Carboxyethyl)-3-bromo-5,6-dihydro-5,11-dioxo-11H-indeno[1,2-c]isoquinoline], the “RXR activity in words (active / inactive)” value is reported as “inactive” and the “Max IR: maximum induction ratio observed” value is reported as “NA (NA: Max IR not determined because IR < 2.)”.
For O=C1c2ccccc2-c2c1c1ccc([N+](=O)[O-])cc1c(=O)n2CCCCl [Compound 133], the “RXR activity in words (active / inactive)” value was “inactive”.
CCCCn1c2c(c3ccccc3c1=O)C(=O)c1ccccc1-2 [Compound 109, 6-Butyl-5H-indeno[1,2-c]isoquinoline-5,11(6H)-dione] was tested, and the “RXR activity in words (active / inactive)” value was “inactive”.
In the case of NCCCn1c2c(c3ccc(NCC(=O)O)cc3c1=O)C(=O)c1ccccc1-2 [Compound 61], the “RXR activity in words (active / inactive)” value is reported as “active”.
In the case of Cn1c2c(c3ccc(C=O)cc3c1=O)C(=O)c1ccccc1-2 [Compound 37, 6-Methyl-5,11-dioxo-6,11-dihydro-5H-indeno[1,2-c]isoquinoline-3-carbaldehyde], the “RXR activity in words (active / inactive)” value is reported as “inactive”.
With O=C(O)CCn1c2c(c3ccccc3c1=O)C(=O)c1ccccc1-2 [Compound 106, 3-(5,11-Dioxo-5H-indeno[1,2-c]isoquinolin-6(11H)-yl)propanoic Acid] the “RXR activity in words (active / inactive)” value was “inactive” and the “Max IR: maximum induction ratio observed” value was “NA (NA: Max IR not determined because IR < 2.)”.
For O=C1c2ccccc2-c2c1c1ccc(Br)cc1c(=O)n2CCCN1CCOCC1 [Compound 92, 3-Bromo-6-(3-morpholinopropyl)-5,11-dioxo-6,11-dihydro-5H-indeno[1,2-c]isoquinoline], the “RXR activity in words (active / inactive)” value was “inactive” and the “Max IR: maximum induction ratio observed” value was “NA (NA: Max IR not determined because IR < 2.)”.
In the case of CN(C)CCCn1c2c(c3ccc(Br)cc3c1=O)C(=O)c1ccccc1-2 [Compound 93, 3-Bromo-6-(3-(dimethylamino)propyl)-5,11-dioxo-6,11-dihydro-5H-indeno[1,2-c]isoquinoline], the “RXR activity in words (active / inactive)” value is reported as “active”.
Cn1c2c(c3ccc(/C=C/C#N)cc3c1=O)C(=O)c1ccccc1-2 [Compound 11, (E)-3-(6-Methyl-5,11-dioxo-6,11-dihydro-5H-indeno[1,2-c]isoquinolin-3-yl)acrylonitrile] was tested, and the “RXR activity in words (active / inactive)” value was “inactive”.
For Cn1c2c(c3ccc(C#N)cc3c1=O)C(=O)c1ccccc1-2 [Compound 39, 3-Cyano-5,11-dihydro-6-methyl-5,11-dioxoindeno[1,2-c]isoquinoline], the “RXR activity in words (active / inactive)” value was “inactive”.
For COC(=O)c1ccc2c3c(n(CCCN)c(=O)c2c1)-c1ccccc1C3=O.Cl [Compound 73, Methyl 6-(3-Aminopropyl)-5,11-dioxo-6,11-dihydro-5H-indeno[1,2-c]isoquinoline-3-carboxylate Hydrochloride], the “Max IR: maximum induction ratio observed” value was “NA (NA: Max IR not determined because IR < 2.)”.
For COC(=O)CC(=O)Nc1ccc2c3c(n(CCCN)c(=O)c2c1)-c1ccccc1C3=O [Compound 52], the “RXR activity in words (active / inactive)” value was “active”.
In the case of CN(C)CCCn1c2c(c3ccccc3c1=O)C(=O)c1ccccc1-2 [Compound 103, 5,6-Dihydro-6-(3-(dimethylamino)-1-propyl)-5,11-dioxo-11Hindeno[1,2-c]isoquinoline], the “RXR activity in words (active / inactive)” value is reported as “active; also recorded: high activity”.
For Cn1c2c(c3ccc(NC(=O)C(=O)O)cc3c1=O)C(=O)c1ccccc1-2 [Compound 45], the “RXR activity in words (active / inactive)” value was “inactive”.
In the case of O=C1c2ccccc2-c2c1c1ccc(Br)cc1c(=O)n2CCCO [Compound 94, 3-Bromo-5,6-dihydro-6(3-hydroxypropyl)-5,11-dioxo-indeno[1,2-c]isoquinoline], the “RXR activity in words (active / inactive)” value is reported as “inactive”.
In the case of CNCCCn1c2c(c3ccccc3c1=O)C(=O)c1ccccc1-2 [Compound 105, 6-(3-(Methylamino)propyl)-5H-indeno[1,2-c]isoquinoline-5,11(6H)-dione], the “RXR activity in words (active / inactive)” value is reported as “active; also recorded: high activity”.
In the case of O=C1c2ccccc2-c2c1c1ccccc1c(=O)n2CCCO [Compound 151], the “RXR activity in words (active / inactive)” value is reported as “inactive” and the “Max IR: maximum induction ratio observed” value is reported as “NA (NA: Max IR not determined because IR < 2.)”.
CN(C)CCCn1c2c(c3ccc(C#N)cc3c1=O)C(=O)c1ccccc1-2 [Compound 129] was tested, and the “RXR activity in words (active / inactive)” value was “active”.
For Cn1c2c(c3ccc(C(=O)O)cc3c1=O)C(=O)c1ccccc1-2 [Compound 30, 6-Methyl-5,11-dioxo-6,11-dihydro-5H-indeno[1,2-c]isoquinoline-3-carboxylic Acid], the “RXR activity in words (active / inactive)” value was “inactive”.
N#Cc1ccc2c3c(n(CCCN4CCOCC4)c(=O)c2c1)-c1ccccc1C3=O [Compound 128] was tested, and the “RXR activity in words (active / inactive)” value was “inactive; also recorded: lack of activity”.
N#Cc1ccc2c3c(n(CCCn4ccnc4)c(=O)c2c1)-c1ccccc1C3=O [Compound 127] was tested, and the “RXR activity in words (active / inactive)” value was “inactive; also recorded: lack of activity”.
With NCCCn1c2c(c3ccc([N+](=O)[O-])cc3c1=O)C(=O)c1ccccc1-2 [Compound 135] the “RXR activity in words (active / inactive)” value was “detrimental for activity” and the “Max IR: maximum induction ratio observed” value was “NA (NA: Max IR not determined because IR < 2.)”.
For Cn1c2c(c3ccc(CCCC(=O)O)cc3c1=O)C(=O)c1ccccc1-2 [Compound 19, 5-(6-Methyl-5,11-dioxo-6,11-dihydro-5H-indeno[1,2-c]isoquinolin-3-yl)butanoic Acid], the “RXR activity in words (active / inactive)” value was “inactive”.
With O=C1c2ccccc2-c2c1c1ccccc1c(=O)n2CCCn1ccnc1 [Compound 102, 5,6-Dihydro-6-(3-imidazolyl-1-propyl)-5,11-dioxo-11H-indeno[1,2-c]isoquinoline] the “RXR activity in words (active / inactive)” value was “inactive” and the “Max IR: maximum induction ratio observed” value was “NA (NA: Max IR not determined because IR < 2.)”.
In the case of C[N+](C)(C)CCCn1c2c(c3ccccc3c1=O)C(=O)c1ccccc1-2.[I-] [Compound 104, 6-(3-(Trimethylammonium)propyl)-5H-indeno[1,2-c]isoquinoline-5,11(6H)-dione Iodide], the “RXR activity in words (active / inactive)” value is reported as “inactive” and the “Max IR: maximum induction ratio observed” value is reported as “NA (NA: Max IR not determined because IR < 2.)”.
With COCCCn1c2c(c3ccccc3c1=O)C(=O)c1ccccc1-2 [Compound 108, 6-(3-Methoxypropyl)-5H-indeno[1,2-c]isoquinoline-5,11(6H)-dione] the “RXR activity in words (active / inactive)” value was “inactive”.
For O=C1c2ccccc2-c2c1c1ccc([N+](=O)[O-])cc1c(=O)n2CCCO [Compound 145], the “RXR activity in words (active / inactive)” value was “inactive”.
In the case of CC(C)(C)OC(=O)NCCCn1c2c(c3ccc(N)cc3c1=O)C(=O)c1ccccc1-2 [Compound 141], the “RXR activity in words (active / inactive)” value is reported as “inactivated”.
In the case of CN(C)c1ccc2c3c(n(CCCN)c(=O)c2c1)-c1ccccc1C3=O [Compound 149], the “RXR activity in words (active / inactive)” value is reported as “inactive” and the “Max IR: maximum induction ratio observed” value is reported as “NA (NA: Max IR not determined because IR < 2.)”.
In the case of CN(C)CCCn1c2c(c3ccc([N+](=O)[O-])cc3c1=O)C(=O)c1ccccc1-2 [Compound 113, 6-(3-(Dimethylamino)propyl)-3-nitro-5H-indeno[1,2-c]isoquinoline-5,11(6H)-dione], the “RXR activity in words (active / inactive)” value is reported as “detrimental for activity” and the “Max IR: maximum induction ratio observed” value is reported as “NA (NA: Max IR not determined because IR < 2.)”.
With O=C1c2ccccc2-c2c1c1ccc(Br)cc1c(=O)n2CCCn1ccnc1 [Compound 91, 3-Bromo-6-(3-(1H-imidazol-1-yl)propyl)-5,11-dioxo-6,11-dihydro-5H-indeno[1,2-c]isoquinoline] the “RXR activity in words (active / inactive)” value was “inactive”.
